Measurements from patent publication US20260226068A1, “IMIDAZOTRIAZINE IL-17A MODULATORS AND USES THEREOF” (DICE ALPHA, INC., priority 2023, published 2026).
pIC50: −log10 of the molar value.

What was measured:
IL-17A/F = target: T1, IL-17A/F (Homo sapiens, UniProt Q16552+Q96PD4); assay: IL-17A/F HEK-Blue cell assay (SEAP reporter); assay type: cell-based; conditions: HEK-Blue IL-17A reporter cells, IL17A/F 5 ng/mL, 20 hours, SEAP read at A630; read-out: HEK-Blue IL17AF (IC50 for IL-17A/F inhibition)
T1 construct: purchased R&D Systems
T1 sequence (Q16552 24-155): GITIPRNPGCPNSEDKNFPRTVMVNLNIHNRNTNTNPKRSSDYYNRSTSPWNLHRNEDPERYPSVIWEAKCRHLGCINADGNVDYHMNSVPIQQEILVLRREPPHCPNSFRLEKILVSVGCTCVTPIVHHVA
T1 sequence (Q96PD4 31-163): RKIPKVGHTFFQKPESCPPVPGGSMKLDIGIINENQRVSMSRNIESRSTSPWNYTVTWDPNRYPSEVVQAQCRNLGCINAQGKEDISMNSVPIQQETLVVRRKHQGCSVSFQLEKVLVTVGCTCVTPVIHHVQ

IL-17A/A = target: T2, IL-17A/A (Homo sapiens, UniProt Q16552); assay: IL-17A/A HEK-Blue cell assay (SEAP reporter); assay type: cell-based; conditions: HEK-Blue IL-17A reporter cells, IL17A/A 5 ng/mL, 20 hours, SEAP read at A630; read-out: HEK-Blue IL17AA (IC50 for IL-17A/A inhibition)
T2 construct: purchased Genscript Z03228
T2 sequence (Q16552 24-155): T1 sequence (Q16552 24-155)

| Structure (SMILES) | pIC50 (IL-17A/F) | pIC50 (IL-17A/A) |
| --- | --- | --- |
| O=C(N[C@H](c1cn2nc(C[C@H]3C[C@@H](C(F)(F)F)CNC3=O)c(C3CCOCC3)nc2n1)C1CCC(F)(F)CC1)OCc1cc(C(F)(F)F)on1 [Compound 183, (5-(trifluoromethyl)isoxazol-3-yl)methyl ((1S)-(4,4-difluorocyclohexyl)(2-(((3R,5R)-2-oxo-5-(trifluoromethyl)piperidin-3-yl)methyl)-3-(tetrahydro-2H-pyran-4-yl)imidazo[1,2-b][1,2,4]triazin-6-yl)methyl)carbamate] | 6.00 to 7.00 | > 7.00 |
| O=C(N[C@H](c1cn2nc(C[C@H]3C[C@@H](C(F)(F)F)CNC3=O)c(C3CCOCC3)nc2n1)C1CCC(F)(F)CC1)c1ccnn1C(F)(F)F [Compound 184, N-((1S)-(4,4-difluorocyclohexyl)(2-(((3R,5R)-2-oxo-5-(trifluoromethyl)piperidin-3-yl)methyl)-3-(tetrahydro-2H-pyran-4-yl)imidazo[1,2-b][1,2,4]triazin-6-yl)methyl)-1-(trifluoromethyl)-1H-pyrazole-5-carboxamide] | < 6.00 | > 7.00 |
| O=C(N[C@H](c1cn2nc(C[C@H]3C[C@@H](C(F)(F)F)CNC3=O)c(C3CCOCC3)nc2n1)C1CCC(F)(F)CC1)c1ccnn1C(F)F [Compound 185, N-((1S)-(4,4-difluorocyclohexyl)(2-(((3R,5R)-2-oxo-5-(trifluoromethyl)piperidin-3-yl)methyl)-3-(tetrahydro-2H-pyran-4-yl)imidazo[1,2-b][1,2,4]triazin-6-yl)methyl)-1-(difluoromethyl)-1H-pyrazole-5-carboxamide] | 6.00 to 7.00 | > 7.00 |
| O=C(N[C@H](c1cn2nc(C[C@H]3C[C@@H](C(F)(F)F)CNC3=O)c(C3CCOCC3)nc2n1)C1CCC(F)(F)CC1)c1ccnn1CC(F)(F)F [Compound 186, N-((1S)-(4,4-difluorocyclohexyl)(2-(((3R,5R)-2-oxo-5-(trifluoromethyl)piperidin-3-yl)methyl)-3-(tetrahydro-2H-pyran-4-yl)imidazo[1,2-b][1,2,4]triazin-6-yl)methyl)-1-(2,2,2-trifluoroethyl)-1H-pyrazole-5-carboxamide] | 6.00 to 7.00 | > 7.00 |
| O=C(N[C@H](c1cn2nc(C[C@H]3C[C@@H](C(F)(F)F)CNC3=O)c(C3CCOCC3)nc2n1)C1CCC(F)(F)CC1)c1ccnn1CC(F)F [Compound 187, N-((1S)-(4,4-difluorocyclohexyl)(2-(((3R,5R)-2-oxo-5-(trifluoromethyl)piperidin-3-yl)methyl)-3-(tetrahydro-2H-pyran-4-yl)imidazo[1,2-b][1,2,4]triazin-6-yl)methyl)-1-(2,2-difluoroethyl)-1H-pyrazole-5-carboxamide] | 6.00 to 7.00 | > 7.00 |
| O=C(N[C@H](c1cn2nc(C[C@H]3C[C@@H](C(F)(F)F)CNC3=O)c(C3CCOCC3)nc2n1)C1CCC(F)(F)CC1)c1ccnn1CCF [Compound 188, N-((1S)-(4,4-difluorocyclohexyl)(2-(((3R,5R)-2-oxo-5-(trifluoromethyl)piperidin-3-yl)methyl)-3-(tetrahydro-2H-pyran-4-yl)imidazo[1,2-b][1,2,4]triazin-6-yl)methyl)-1-(2-fluoroethyl)-1H-pyrazole-5-carboxamide] | 6.00 to 7.00 | > 7.00 |
| Cc1nocc1C(=O)N[C@H](c1cn2nc(C[C@H]3C[C@@H](C(F)(F)F)CNC3=O)c(C3CCOCC3)nc2n1)C1CCC(F)(F)CC1 [Compound 189, N-((1S)-(4,4-difluorocyclohexyl)(2-(((3R,5R)-2-oxo-5-(trifluoromethyl)piperidin-3-yl)methyl)-3-(tetrahydro-2H-pyran-4-yl)imidazo[1,2-b][1,2,4]triazin-6-yl)methyl)-3-methylisoxazole-4-carboxamide] | 6.00 to 7.00 | > 7.00 |
| O=C(N[C@H](c1cn2nc(C[C@H]3C[C@@H](C(F)(F)F)CNC3=O)c(C3CCOCC3)nc2n1)C1CCC(F)(F)CC1)c1nonc1C(F)F [Compound 190, N-((1S)-(4,4-difluorocyclohexyl)(2-(((3R,5R)-2-oxo-5-(trifluoromethyl)piperidin-3-yl)methyl)-3-(tetrahydro-2H-pyran-4-yl)imidazo[1,2-b][1,2,4]triazin-6-yl)methyl)-4-(difluoromethyl)-1,2,5-oxadiazole-3-carboxamide] | < 6.00 | > 7.00 |
| O=C(N[C@H](c1cn2nc(C[C@H]3C[C@@H](C(F)(F)F)CNC3=O)c(C3CCOCC3)nc2n1)C1CCC(F)(F)CC1)c1conc1C(F)(F)F [Compound 191, N-((1S)-(4,4-difluorocyclohexyl)(2-(((3R,5R)-2-oxo-5-(trifluoromethyl)piperidin-3-yl)methyl)-3-(tetrahydro-2H-pyran-4-yl)imidazo[1,2-b][1,2,4]triazin-6-yl)methyl)-3-(trifluoromethyl)isoxazole-4-carboxamide] | 6.00 to 7.00 | > 7.00 |
| CCn1nccc1C(=O)N[C@H](c1cn2nc(C[C@H]3C[C@@H](C(F)(F)F)CNC3=O)c(N3CCC(F)(F)CC3)nc2n1)C1CCC(F)(F)CC1 [Compound 192, N—((S)-(4,4-difluorocyclohexyl)(3-(4,4-difluoropiperidin-1-yl)-2-(((3R,5R)-2-oxo-5-(trifluoromethyl)piperidin-3-yl)methyl)imidazo[1,2-b][1,2,4]triazin-6-yl)methyl)-1-ethyl-1H-pyrazole-5-carboxamide] | 6.00 to 7.00 | > 7.00 |
| CCn1nccc1C(=O)N[C@H](c1cn2nc(C[C@H]3C[C@@H](C(F)(F)F)CNC3=O)c(N3CC4(CCOC4)C3)nc2n1)C1CCC(F)(F)CC1 [Compound 193, N—((S)-(4,4-difluorocyclohexyl)(2-(((3R,5R)-2-oxo-5-(trifluoromethyl)piperidin-3-yl)methyl)-3-(6-oxa-2-azaspiro[3.4]octan-2-yl)imidazo[1,2-b][1,2,4]triazin-6-yl)methyl)-1-ethyl-1H-pyrazole-5-carboxamide] | 6.00 to 7.00 | > 7.00 |
| CCn1nccc1C(=O)N[C@H](c1cn2nc(C[C@H]3C[C@@H](C(F)(F)F)CNC3=O)c(N3CCC(C)(O)CC3)nc2n1)C1CCC(F)(F)CC1 [Compound 194, N—((S)-(4,4-difluorocyclohexyl)(3-(4-hydroxy-4-methylpiperidin-1-yl)-2-(((3R,5R)-2-oxo-5-(trifluoromethyl)piperidin-3-yl)methyl)imidazo[1,2-b][1,2,4]triazin-6-yl)methyl)-1-ethyl-1H-pyrazole-5-carboxamide] | 6.00 to 7.00 | > 7.00 |
| CCn1nccc1C(=O)N[C@H](c1cn2nc(C[C@H]3C[C@@H](C(F)(F)F)CNC3=O)c(N(C)CC3(C)COC3)nc2n1)C1CCC(F)(F)CC1 [Compound 195, N—((S)-(4,4-difluorocyclohexyl)(3-(methyl((3-methyloxetan-3-yl)methyl)amino)-2-(((3R,5R)-2-oxo-5-(trifluoromethyl)piperidin-3-yl)methyl)imidazo[1,2-b][1,2,4]triazin-6-yl)methyl)-1-ethyl-1H-pyrazole-5-carboxamide] | < 6.00 | 6.00 to 7.00 |
| CCn1nccc1C(=O)N[C@H](c1cn2nc(C[C@H]3C[C@@H](C(F)(F)F)CNC3=O)c(C3CCOCC3)nc2n1)C1CCCCC1 [Compound 196, N-((1S)-cyclohexyl(2-(((3R,5R)-2-oxo-5-(trifluoromethyl)piperidin-3-yl)methyl)-3-(tetrahydro-2H-pyran-4-yl)imidazo[1,2-b][1,2,4]triazin-6-yl)methyl)-1-ethyl-1H-pyrazole-5-carboxamide] | > 7.00 | > 7.00 |
| CCn1nccc1C(=O)N[C@H](c1cn2nc(C[C@H]3C[C@@H](C(F)(F)F)CNC3=O)c(C3CCOCC3)nc2n1)C1CC2(C1)CC(F)(F)C2 [Compound 197] | < 6.00 | > 7.00 |
| CCn1nccc1C(=O)N[C@@H](c1cn2nc(C[C@H]3C[C@@H](C(F)(F)F)CNC3=O)c(C3CCOCC3)nc2n1)C1CC2CC2C1 (stereo partly shown) [Compound 198] | 6.00 to 7.00 | > 7.00 |
| CCn1nccc1C(=O)N[C@H](c1cn2nc(C[C@H]3C[C@@H](C(F)(F)F)CNC3=O)c(N3CCN(C)[C@@H](C)C3)nc2n1)C1CCC(F)(F)CC1 [Compound 200] | 6.00 to 7.00 | > 7.00 |
| CCn1nccc1C(=O)N[C@H](c1cn2nc(C[C@H]3C[C@@H](C(F)(F)F)CNC3=O)c(N[C@H]3CC[C@@H](OC)CC3)nc2n1)C1CCC(F)(F)CC1 [Compound 201] | 6.00 to 7.00 | > 7.00 |
| CCn1nccc1C(=O)N[C@H](c1cn2nc(C[C@H]3C[C@@H](C(F)(F)F)CNC3=O)c(C(C)C)nc2n1)[C@H]1CCCC(F)(F)C1 [Compound 205, N-((1S)—((S)-3,3-difluorocyclohexyl)(3-isopropyl-2-(((3R,5R)-2-oxo-5-(trifluoromethyl)piperidin-3-yl)methyl)imidazo[1,2-b][1,2,4]triazin-6-yl)methyl)-1-ethyl-1H-pyrazole-5-carboxamide] | > 7.00 | > 7.00 |
| CCn1nccc1C(=O)N[C@H](c1cn2nc(C[C@H]3C[C@@H](C(F)(F)F)CNC3=O)c(C(C)C)nc2n1)[C@@H]1CCCC(F)(F)C1 [Compound 206, N-((1S)—((R)-3,3-difluorocyclohexyl)(3-isopropyl-2-(((3R,5R)-2-oxo-5-(trifluoromethyl)piperidin-3-yl)methyl)imidazo[1,2-b][1,2,4]triazin-6-yl)methyl)-1-ethyl-1H-pyrazole-5-carboxamide] | 6.00 to 7.00 | > 7.00 |
